Test results from patent publication US5466717A, “Halogenated 4'-methoxyacetophenones as microbicides and preservatives” (Buckman Laboratories Int'l, Inc., priority 1993, dated 1995).
Where two headings read alike, the source gives them in different places.

Assays:
Pseudomonas aeruginosa = test: Pulp substrate method, percent kill of P. aeruginosa (Table 2); assay type: cell-based
Description: Compounds 1 and 2 were tested by the pulp substrate method described in detail in U.S. Pat. No. 2,881,070, column 5, line 12--column 6, line 53. The disclosure of U.S. Pat. No. 2,881,070 is specifically incorporated here by reference. […] The tests utilized Enterobacter aerogenes and Pseudomonas aeruginosa in pulp substrates that had been buffered at pH 7.0 and 8.0.

ALGAE = test: Long term control of algal growth on a paint film, ASTM D3456 (Table 8); settings: latex paint on Southern yellow pine, 5 years and 5 months
Description: (§1) The effectiveness of halogenated 4'-methoxyacetophenones were evaluated for long term control of fungal and algal growth on a paint film following ASTM Procedure #D3456 (ASTM, 1916 Race St., Philadelphia, Pa. 19103). The test compared the effectiveness of compound 2, 2,2,3'-tribromo-4'-methoxyacetophenone, in latex paint with the commercially available biocides such as Nopcocide-96, and Troysan Polyphase over a period of 5 years and 5 months. The test paint was brush-applied (2 coats) over Southern yellow pine panels. A minimum of 24 hours was allowed between coats. The panels were rated based on the ASTM Procedure #D3274: […]

FUNGI = test: Long term control of fungal growth on a paint film, ASTM D3456 (Table 8); settings: latex paint on Southern yellow pine, 5 years and 5 months
Description: as §1

[1] = pH 7.0, read-out: % Kill of P. aeroginosa
[2] = pH 8.0, read-out: % Kill of P. aeroginosa

Structure (SMILES) | killing at 1 ppm (Pseudomonas aeruginosa; [1]) | killing at 1 ppm (Pseudomonas aeruginosa; [2]) | killing at 2 ppm (Pseudomonas aeruginosa; [1]) | killing at 2 ppm (Pseudomonas aeruginosa; [2]) | killing at 4 ppm (Pseudomonas aeruginosa; [1]) | killing at 4 ppm (Pseudomonas aeruginosa; [2]) | killing at 8 ppm (Pseudomonas aeruginosa; [1]) | killing at 8 ppm (Pseudomonas aeruginosa; [2]) | killing at 10 ppm (Pseudomonas aeruginosa; [1]) | killing at 10 ppm (Pseudomonas aeruginosa; [2]) | killing at 15 ppm (Pseudomonas aeruginosa; [1]) | killing at 15 ppm (Pseudomonas aeruginosa; [2]) | killing at 20 ppm (Pseudomonas aeruginosa; [1]) | killing at 20 ppm (Pseudomonas aeruginosa; [2]) | killing at 25 ppm (Pseudomonas aeruginosa; [1]) | killing at 25 ppm (Pseudomonas aeruginosa; [2]) | ALGAE rating in paint film preservation (ALGAE; 0.25%) | ALGAE rating in paint film preservation (ALGAE; 0.5%) | FUNGI rating in paint film preservation (FUNGI; 0.25%) | FUNGI rating in paint film preservation (FUNGI; 0.5%)
COc1ccc(C(=O)CBr)cc1Br [Compound 1, 2,3'-dibromo-4'-methoxyacetophenone] | 6% | 85% | 7% | 75% | 43% | 89% | 67% | 70% | 93% | 79% | 94% | 94% | 98% | 89% | 97% | 99% | – | – | – | –
COc1ccc(C(=O)C(Br)Br)cc1Br [Compound 2, 2,2,3'-tribromo-4'-methoxyacetophenone] | 15% | 0% | 0% | 54% | 36% | 25% | 17% | 71% | 80% | 86% | 97% | 94% | 98% | 99% | 97% | 99% | 6.0 | 5.0 | 5.0 | 5.0
